# Values joined by “and” are separate entries in the source; they are usually repeats but may differ in a detail not shown here. Equal values may be shown once. Read-outs that look alike come from different tables or passages of the source.
# Experiments:
# L1210 mouse leukaemia = assay: In vitro antitumor-drug screening, tetrazolium (MTT) microculture assay, L1210; format: cell-based
# Protocol: (§1) Test complexes 1-5, DMC, hydrolyzed DMC, cantharidin, together with controls cisplatin and carboplatin, were screened for in vitro antitumor activity against a series of human cancer cell lines and mouse leukaemia L1210, using a tetrazolium microculture assay.
# (§2) Drugs: Drugs to be tested were dissolved in complete medium at twice the highest concentration to be used, followed by filter (0.22 μm) sterilization. A series of log dilutions were made of each drug solution using complete medium. All drug solutions were prepared within 10 minutes before adding to the cells.
# (§3) Cells: MDA-MB-231 (human breast), SK-OV-3 (human ovarian), SK-Hep-1 (human liver), COLO320DM (human colon), L1210 (mouse leukaemia), NCI:H460 (human lung) and NTERA-Scl-D1 (human testicular) were obtained from the American Type Culture Collection (ATCC).
# (§4) The cultures were incubated for an additional 72 hours.
# (§5) Data analysis: The mean OD for all 12 control wells was determined. For each concentration of each drug, the mean OD of the 4 wells was determined. All mean OD was subtracted from the blank to account for the background. The “Percent of Control” values were determined and plotted. The concentration of drug resulting in 50% growth inhibition (IC50) was determined using the software Prism 3.0 by fitting the graph into sigmoidal dose-response curve.
# [1] = tested on: COLO320DM human colon cancer; assay: In vitro antitumor-drug screening, MTT assay, COLO320DM; format: cell-based
# Protocol: as §1, §2, §3, §4, §5
# [2] = tested on: MDA-MB-231 human breast cancer; assay: In vitro antitumor-drug screening, MTT assay, MDA-MB-231; format: cell-based
# Protocol: as §1, §2, §3, §4, §5
# [3] = tested on: SK-OV-3 human ovarian cancer; assay: In vitro antitumor-drug screening, MTT assay, SK-OV-3; format: cell-based
# Protocol: as §1, §2, §3, §4, §5
# [4] = tested on: SK-Hep-1 human liver cancer; assay: In vitro antitumor-drug screening, MTT assay, SK-Hep-1; format: cell-based
# Protocol: as §1, §2, §3, §4, §5
# [5] = tested on: NCI: H460 human lung cancer; assay: In vitro antitumor-drug screening, MTT assay, NCI:H460; format: cell-based; conditions: n = 12-16 from 3-4 independent experiments, read-out: Growth-inhibitory activity IC50 ± sd
# Protocol: as §1, §2, §3, §4, §5
# [6] = tested on: NTERA-S cl D1 human testicular cancer; assay: In vitro antitumor-drug screening, MTT assay, NTERA-S cl D1; format: cell-based; conditions: n = 12-16 from 3-4 independent experiments, read-out: Growth-inhibitory activity IC50 ± sd
# Protocol: as §1, §2, §3, §4, §5
# [7] = tested on: Sensitive parental L1210 mouse leukaemia; assay: cells; format: cell-based; conditions: 72-hr exposure, fa = 50%
# Protocol: (§6) In vitro drug exposure: Trypsinized cells were adjusted to a concentration of 2×10^5 cells/ml in complete medium and for each drug to be tested, 0.1 ml of the cell suspension was added to each of the 24 wells of a 96-well microtitre plate. The plate was then incubated at standard conditions for 24 hours in order to allow the cells to attach to the bottom of the well and resume exponential growth. To each well of the control cultures and drug/concentration combination, 0.1 ml of complete medium and drug solution respectively was added. Each drug/concentration combination consisted of 4 replicates while control cultures consisted of 12 replicates. 12 replicates of blank consisting of 0.2 ml complete medium were set aside to account for the background. The cultures were incubated for an additional 72 hours. All experiments were repeated at least 3 times on different occasions.
# (§7) MTT assay: The MTT (tetrazolium) assay was used to determine the growth-inhibitory effects of different drugs. A 5 mg/ml solution of MTT (3-(4,5-dimethylthiazol-2-yl)-2,5-diphenyltetrazolium bromide) was prepared in phosphate buffer saline (pH 7.4), filter (0.22 μm) sterilized and stored at −20° C. To each well, 0.02 ml of the MTT solution was added and the plates were incubated at standard conditions for 4 hours. The media from each well was then removed and 0.1 ml of DMSO (dimethylsulfoxide) was added to each well to solubilize the colored dye produced from the metabolic reduction of MTT. The amount of reduced MTT was determined by spectrophotometric means (570 nm).
# (§8) Platinum compounds were evaluated alone and in combination with demethylcantharidin (DMC) for their cytotoxic effects. The cytotoxicity for the compounds was determined by the MTT assay as described above. The median-effect principle and combination-index isobologram method of Chou and Talalay was used to determine the dose-effect parameters for cisplatin, DMC, or their mixtures at different combination ratios. Each drug or mixture was 3-fold serially diluted to generate a dose-effect relationship in the cytotoxic assays.
# (§9) Combinations of cisplatin and DMC were evaluated for synergism, additive effect or antagonism using the median-effect plot and combination-index isobologram method of Chou and Talalay references 1-4.
# This method involves plotting dose-effect curves for each agent and their combinations in multiply-diluted concentrations by using the median-effect equation [3,6] […]
# CI<1, CI=1, and CI>1 indicate synergism, additivity, and antagonism, respectively. As based on the classic isobologram equation, CI can be calculated by equation: […]
# Both the mutually non-exclusive and exclusive drug interaction as defined by Chou and Chou (reference 7) were evaluated. […]
# [8] = tested on: Cisplatin-resistant L1210 mouse leukaemia; conditions: for fold-resistant (cross-resistance): Dm in CDDP-resistant L1210 versus sensitive L1210
# Protocol: as §6, §7, §8, §9
# This method involves plotting dose-effect curves for each agent and their combinations in multiply-diluted concentrations by using the median-effect equation [3,6]
# where fa is the fraction of cells affected (ie, fraction of cells killed), fu the fraction unaffected (i.e. fraction of cells surviving; fa=1−fu), D the dose of drug and Dm the dose causing the median effect
# The parameters m, Dm, and r are the slope, antilog of x-intercept, and the linear correlation coefficient of the median-effect plot, which signifies the shape of the dose-effect curve, the potency (IC50), and conformity of the data to the mass-action law, in references 3, 5 and 6, respectively. Dm and m values are used for calculating the combination index (CI) values.
# CI<1, CI=1, and CI>1 indicate synergism, additivity, and antagonism, respectively. As based on the classic isobologram equation, CI can be calculated by equation:
# CI=[(D)1/(Dx)1]+[(D)2/(Dx)2]+[α(D)1(D)2]/[(Dx)1(Dx)2),
# Both the mutually non-exclusive and exclusive drug interaction as defined by Chou and Chou (reference 7) were evaluated.
# To preclude a false-positive result, classical isobologram curve tracing was used to confirm the synergistic effect at a reasonable fractional cytotoxic effect (fa=50%).
# [9] = Mus musculus, L1210, Table 1, read-out: In vitro antitumor activity IC50
# [10] = Homo sapiens, COLO 320DM, COLO320DM, Table 1, read-out: In vitro antitumor activity IC50
# [11] = Homo sapiens, MDA-MB-231, Table 1, read-out: In vitro antitumor activity IC50
# [12] = Homo sapiens, SK-OV-3, Table 1, read-out: In vitro antitumor activity IC50
# [13] = Homo sapiens, SK-HEP1, SK-Hep-1, Table 1, read-out: In vitro antitumor activity IC50
# [14] = L1210 mouse leukaemia, n = 12-16 from 3-4 independent experiments, read-out: Growth-inhibitory activity IC50 ± sd
# [15] = COLO320-DM human colon cancer, n = 12-16 from 3-4 independent experiments, read-out: Growth-inhibitory activity IC50 ± sd
# [16] = MDA-MB-231 human breast cancer, n = 12-16 from 3-4 independent experiments, read-out: Growth-inhibitory activity IC50 ± sd
# [17] = SK-OV-3 human ovarian cancer, n = 12-16 from 3-4 independent experiments, read-out: Growth-inhibitory activity IC50 ± sd
# [18] = SK-Hep-1 human liver cancer, n = 12-16 from 3-4 independent experiments, read-out: Growth-inhibitory activity IC50 ± sd
# [19] = sensitive parental L1210, read-out: Dm (i.e. IC50), antilog of x-intercept of the median-effect plot
Structure (SMILES),IC50 (L1210 mouse leukaemia; [14]),"IC50 [1, 15]","IC50 [2, 16]","IC50 [3, 17]","IC50 [4, 18]",IC50 [5],IC50 [6],fold-resistant (cross-resistance) [8],further results
C[C@@]12C(=O)OC(=O)[C@]1(C)[C@H]1CC[C@@H]2O1 [Cantharidin],–,–,–,–,–,–,–,–,"IC50 (L1210 mouse leukaemia; [9]): 38.9 µM; IC50 [1, 10]: 35.6 µM; IC50 [2, 11]: 10.6 µM; IC50 [3, 12]: 4.98 µM; IC50 [4, 13]: 3.34 µM"
"N.N.O=C([O-])C1(C(=O)[O-])CCC1.[Pt+2] [Carboplatin, reference compound]",10.1 ± 3.71 µM,188 ± 35.8 µM,1080 ± 157 µM,149 ± 34.1 µM,501 ± 86.6 µM,60.3 ± 16.4 µM,2.75 ± 1.13 µM,14.5 fold,"IC50 [7, 19]: 10.6 µM; IC50 [8]: 154 µM; fold-resistant (cross-resistance) ([8]; listed as carboplatin): ~15 fold"
"N.N.[Cl][Pt][Cl] [Cisplatin, reference compound]",0.51 ± 0.11 µM,11.9 ± 1.5 µM,65.7 ± 4.39 µM,15.2 ± 11.8 µM,54.1 ± 9.81 µM,11.3 ± 4.93 µM,0.19 ± 0.1 µM,40.8 fold,"IC50 [7, 19]: 0.603 µM; IC50 [8]: 24.6 µM; DRI for cisplatin, resistant versus sensitive parental cell line ([8]; Cisplatin:DMC 1:1.67 (resistant) versus 1:1.49 (sensitive)): about 5.5 fold; fold-resistant (cross-resistance) ([8]; listed as cisplatin): 40 fold"
[NH2][Pt]1([NH2])[O]C(=O)C2C3CCC(O3)C2C(=O)[O]1 (stereo not drawn) [Complex 1],2.71 ± 0.4 µM,37.2 ± 7.14 µM,63.8 ± 8.28 µM,40.8 ± 14.3 µM,20.6 ± 5.89 µM,21.1 ± 10.7 µM,0.36 ± 0.25 µM,8 fold and 8.2 fold,"IC50 [7, 19]: 5.15 µM; IC50 [8]: 42.4 µM; fold-resistant (cross-resistance) ([8]; listed as complex 1): different degree of cross-resistant"
CC(C)[NH][Pt]1([NH]C(C)C)[O]C(=O)C2C3CCC(O3)C2C(=O)[O]1 (stereo not drawn) [Complex 2],12.1 ± 2.35 µM,84.7 ± 9.68 µM,94.5 ± 9.61 µM,77.7 ± 19.8 µM,17.2 ± 8.07 µM,26.5 ± 8.09 µM,1.44 ± 0.41 µM,–,–
C[NH][Pt]1([NH]C)[O]C(=O)C2C3CCC(O3)C2C(=O)[O]1 (stereo not drawn) [Complex 3],6.19 ± 2.67 µM,48.9 ± 10.5 µM,49.4 ± 9.42 µM,37.2 ± 13.4 µM,15.4 ± 6.04 µM,3.44 ± 1.98 µM,0.84 ± 0.2 µM,–,–
CC[NH][Pt]1([NH]CC)[O]C(=O)C2C3CCC(O3)C2C(=O)[O]1 (stereo not drawn) [Complex 4],5.92 ± 1.94 µM,48.5 ± 9.95 µM,62.5 ± 13.3 µM,62.6 ± 33.5 µM,20 ± 5.52 µM,3.91 ± 2.65 µM,0.6 ± 0.24 µM,–,–
O=C1[O][Pt]2([NH]C3CCCCC3[NH]2)[O]C(=O)C2C3CCC(O3)C12 (stereo not drawn) [Complex 5],–,–,–,–,–,–,–,negligible cross-resistance,–
"O=C1OC(=O)C2C3CCC(O3)C12 (stereo not drawn) [DMC, Demethylcantharidin]",–,–,–,–,–,–,–,1.1 fold,"IC50 (L1210 mouse leukaemia; [9]): 13.9 µM; IC50 [1, 10]: 19.3 µM; IC50 [2, 11]: 31.8 µM; IC50 [3, 12]: 53.8 µM; IC50 [4, 13]: 11.5 µM; IC50 ([7]; Mus musculus, L1210, 72 h, read-out: Dm (i.e. IC50), antilog of x-intercept of the median-effect plot, sensitive parental L1210): 11.2 µM; fold-resistant (cross-resistance) ([8]; listed as demethylcantharidin (DMC)): negligible cross-resistance"
O=C(O)C1C2CCC(O2)C1C(=O)O (stereo not drawn) [Hydrolyzed DMC],–,–,–,–,–,–,–,–,"IC50 (L1210 mouse leukaemia; L1210, Table 1, read-out: In vitro antitumor activity IC50): 8.33 µM; IC50 ([1]; COLO320DM, Table 1, read-out: In vitro antitumor activity IC50): 46.5 µM; IC50 ([2]; MDA-MB-231, Table 1, read-out: In vitro antitumor activity IC50): 41.7 µM; IC50 ([3]; SK-OV-3, Table 1, read-out: In vitro antitumor activity IC50): 46.6 µM; IC50 ([4]; SK-Hep-1, Table 1, read-out: In vitro antitumor activity IC50): 7.2 µM"
O=C1[O][Pt]2([NH][C@@H]3CCCC[C@H]3[NH]2)[O]C1=O [Oxaliplatin],–,–,–,–,–,–,–,different degree of cross-resistant,–

# — patent publication US20040152766A1, “Composition comprising demethylcantharidin in combination with platinum-containing anticancer agents and use thereof” (priority 2003, published 2004)
